Source: patent publication US20210179680A1, “POLYPEPTIDE, DERIVATIVES THEREOF, AND APPLICATION THEREOF IN PREPARATION OF DRUGS HAVING RESISTANCE TO PULMONARY FIBROSIS” (priority 2016, published 2021)
Bridge positions count the residues as written; N and C are the ends. Square brackets hold non-standard residues; d marks the D form. Peptide text beside a SMILES is read from it. S5 = C=CCCC[C@](C)(N)C(=O)O

Tests used:
TRB3 protein = target: T1, TRB3 protein (Homo sapiens, UniProt Q96RU7); experiment: Surface plasmon resonance (Biacore T200) binding of polypeptides to TRB3 protein; conditions: SPR, FIG. 4-1, 4-2 and Table 1
T1 construct: purchased RD
T1 sequence (Q96RU7 1-358): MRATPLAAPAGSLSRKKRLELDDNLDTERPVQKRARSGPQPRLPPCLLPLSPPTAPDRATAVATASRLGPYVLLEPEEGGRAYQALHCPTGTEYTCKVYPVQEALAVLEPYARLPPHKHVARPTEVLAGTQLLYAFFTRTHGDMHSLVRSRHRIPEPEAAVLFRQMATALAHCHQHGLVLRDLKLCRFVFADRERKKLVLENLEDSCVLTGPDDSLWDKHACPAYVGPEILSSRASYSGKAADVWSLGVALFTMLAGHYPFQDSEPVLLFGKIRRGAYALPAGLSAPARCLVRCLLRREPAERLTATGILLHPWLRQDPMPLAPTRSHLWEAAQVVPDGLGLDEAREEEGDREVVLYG
Procedure: The surface plasmon resonance experiment was carried out in a surface plasmon resonator Biacore T200, and the procedure was carried out in accordance with the instructions of the plasma resonator Biacore T200. Specific steps are as follows:
1. Purified TRB3 protein (purchased from RD) was coupled to a CMS chip (purchased from GE) by amidogen, and the unbound protein was eluted at a flow rate of 10 μL/min. The surface of the chip was equilibrated for 2 hours. Among them, the specific steps of amidogen coupling, elution and equilibration refer to the relevant instruction of GE's CMS chip.
2. 250 μL of the S1-S11 and MR2 polypeptide fragments prepared in Example 1 with different concentrations (800, 400, 200, 50, 12.5, 6.25, and 3.125 nM) were automatically injected, and the entire surface plasmon resonance experiment was carried out at 25° C. The buffer used was HBS-EP buffer [0.01 M HEPES, 0.15 M NaCl, 3 mM EDTA and 0.005% (w/w) surfactant TWEEN20]. Biacore T200's built-in analysis software was used to simulate the binding curves of different concentrations of peptides to TRB3.

[1] = α-helix ratio of polypeptides by circular dichroism; assay type: physicochemical; conditions: PBS solution, 1 mg/mL
Procedure: The α-helix ratio of the polypeptide was measured by a circular dichromatograph (purchased from Jasco, Japan). The polypeptides MR2, S1, S2, S3, S4, S5, S6, S7, S8, S9, S10 and S11 prepared in Example 1 were dissolved in PBS solution, and the working concentration of the circular dichromatograph was adjusted to 1 mg/mL. […] Among them, the α-helix ratio refers to the percentage of the number of peptide segments of the polypeptide that maintains the alpha helix of the secondary structure in the peptide segments of the total polypeptide.

[2] = system: mice with bleomycin-induced pulmonary fibrosis; experiment: HE staining pathomorphology and inflammatory score of bleomycin-induced pulmonary fibrosis; assay type: in vivo, C57BL/6 mice; conditions: 2 mg/kg i.p., after 28 days, grade 0-5; for Inflammatory score: Table 3 groups; for Inflammatory scoring: Table 9 groups
Procedure: Male C57BL/6 mice were fasted overnight, then anesthetized with 45 mg/kg sodium pentobarbital by injection intraperitoneally (i.p.), and intratracheally injected with bleomycin at a dose of 3 U/kg. The specific operation steps are as follows: cut the neck skin of the mouse with as little trauma as possible, expose the trachea with the assistance of elbow ophthalmic forceps, puncture the trachea and inject about 50 μL of bleomycin into the trachea with a microsyringe, rotate the mouse quickly and stand it upright for 5 minutes in order to make bleomycin evenly enter the left and right lobe, thereby constructing an animal model. The whole operation was performed at a surgical table at about […]. Mice in the sham operation group were intratracheally injected with an equal amount of physiological saline for injection.
General tissue changes and tissue products can be visualized by HE staining method, namely Hematoxylin and Eosin staining method, which is the most commonly used staining method for morphology. Among them, hematoxylin dyeing solution is an alkaline dyeing solution, which mainly makes the chromatin in the nucleus and the ribosome in the cytoplasm purple blue; eosin is an acid dye, which mainly makes the components in the cytoplasm and extracellular matrix red. Pulmonary fibrosis models were made according to the method described in Example 2 and administered in groups according to Table 3. After 28 days, the right lower lobe of lung tissue of the experimental animals was taken, and fixed with 4% (v/v) paraformaldehyde and embedded in paraffin. Section was performed on the largest cross-section of the paraffin block in which the lung tissue embedded, and basic pathological changes was observed through HE staining. […] The administration of polypeptides S1-S11 can reduce lung inflammation caused by bleomycin, and effectively ameliorate lung injury and restore normal lung structure.
The inflammatory grading was observed according to the results of HE staining, and the criteria were as follows (grade 0-5): grade “0”: normal tissue; grade “1”: extremely small inflammatory changes; grade “2”: mild to moderate inflammatory changes without apparent destruction of lung tissue structure; grade “3”: moderate inflammatory injury (thickening of alveolar diaphragm); grade “4”: moderate to severe inflammatory injury with formation of tissue mass, or the normal structure of lung tissue was destroyed by localized pneumonia area; grade “5”: severe inflammatory injury, severe destruction of the localized lung tissue structure, resulting in closure of lumen.
Pulmonary fibrosis models were made according to the method described in Example 2 and administered in groups according to Table 9. After 28 days, the right lower lobe of lung tissue of the experimental animals was taken, and fixed by 4% (v/v) paraformaldehyde and embedded in paraffin. Section was performed on the largest cross-section of the paraffin block in which the lung tissue embedded, and basic pathological changes was observed through HE staining.

| Molecule | interaction with the TRB3 protein (in words) (TRB3 protein) | α-helicity (%) [1] [%] | Inflammatory score [2] | α-helix ratio compared with polypeptide MR2 (in words) [1] | Inflammatory scoring [2] |
| --- | --- | --- | --- | --- | --- |
| CSCC[C@H](NC(=O)[C@H](CC(C)C)NC(=O)[C@@H](N)Cc1c[nH]cn1)C(=O)N[C@@H](C)C(=O)N[C@@H](CS)C(=O)N[C@@H](Cc1ccccc1)C(=O)N[C@H](C(=O)N[C@@H](CS)C(=O)N[C@@H](C)C(=O)N[C@@H](CCCCN)C(=O)N[C@@H](CCCCN)C(=O)N[C@@H](CC(C)C)C(=O)N[C@@H](CCCCN)C(=O)N[C@@H](CCCCN)C(=O)N[C@@H](CCCNC(=N)N)C(=O)O)[C@@H](C)O [MR2] (H-HLMACFTCAKKLKKR-OH; N-terminus and C-terminus assumed) | interacted with the TRB3 protein | 0.0 | 4 |  |  |
| CSCC[C@@H]1NC(=O)[C@H](CC(C)C)NC(=O)[C@@](C)(N)CCCC=CCCC[C@@](C)(C(=O)N[C@@H](Cc2ccccc2)C(=O)N[C@H](C(=O)N[C@@H](CS)C(=O)N[C@@H](C)C(=O)N[C@@H](CCCCN)C(=O)N[C@@H](CCCCN)C(=O)N[C@@H](CC(C)C)C(=O)N[C@@H](CCCCN)C(=O)N[C@@H](CCCCN)C(=O)N[C@@H](CCCNC(=N)N)C(=O)O)[C@@H](C)O)NC(=O)[C@H](C)NC1=O [S1, S5-Leu-Met-Ala-S5-Phe-Thr-Cys-Ala-Lys-Lys-Leu-Lys-Lys-Arg] (H-[S5]LMA[S5]FTCAKKLKKR-OH; staple 1-5; N-terminus and C-terminus assumed) | interacted with the TRB3 protein | 39.5 | 2.667 | significantly higher than that of polypeptide MR2 |  |
| CSCC[C@@H]1NC(=O)[C@@](C)(NC(=O)[C@@H](N)Cc2c[nH]cn2)CCCC=CCCC[C@@](C)(C(=O)N[C@H](C(=O)N[C@@H](CS)C(=O)N[C@@H](C)C(=O)N[C@@H](CCCCN)C(=O)N[C@@H](CCCCN)C(=O)N[C@@H](CC(C)C)C(=O)N[C@@H](CCCCN)C(=O)N[C@@H](CCCCN)C(=O)N[C@@H](CCCNC(=N)N)C(=O)O)[C@@H](C)O)NC(=O)[C@H](CS)NC(=O)[C@H](C)NC1=O [S2, His-S5-Met-Ala-Cys-S5-Thr-Cys-Ala-Lys-Lys-Leu-Lys-Lys-Arg] (H-H[S5]MAC[S5]TCAKKLKKR-OH; staple 2-6; N-terminus and C-terminus assumed) | interacted with the TRB3 protein | 25.7 | 2.667 | significantly higher than that of polypeptide MR2 |  |
| CC(C)C[C@H](NC(=O)[C@H](CCCCN)NC(=O)[C@H](CCCCN)NC(=O)[C@H](C)NC(=O)[C@H](CS)NC(=O)[C@]1(C)CCCC=CCCC[C@](C)(NC(=O)[C@H](CC(C)C)NC(=O)[C@@H](N)Cc2c[nH]cn2)C(=O)N[C@@H](C)C(=O)N[C@@H](CS)C(=O)N[C@@H](Cc2ccccc2)C(=O)N1)C(=O)N[C@@H](CCCCN)C(=O)N[C@@H](CCCCN)C(=O)N[C@@H](CCCNC(=N)N)C(=O)O [S3, His-Leu-S5-Ala-Cys-Phe-S5-Cys-Ala-Lys-Lys-Leu-Lys-Lys-Arg] (H-HL[S5]ACF[S5]CAKKLKKR-OH; staple 3-7; N-terminus and C-terminus assumed) | interacted with the TRB3 protein | 42.1 | 2.5 | significantly higher than that of polypeptide MR2 |  |
| CSCC[C@H](NC(=O)[C@H](CC(C)C)NC(=O)[C@@H](N)Cc1c[nH]cn1)C(=O)N[C@@]1(C)CCCC=CCCC[C@@](C)(C(=O)N[C@@H](C)C(=O)N[C@@H](CCCCN)C(=O)N[C@@H](CCCCN)C(=O)N[C@@H](CC(C)C)C(=O)N[C@@H](CCCCN)C(=O)N[C@@H](CCCCN)C(=O)N[C@@H](CCCNC(=N)N)C(=O)O)NC(=O)[C@H]([C@@H](C)O)NC(=O)[C@H](Cc2ccccc2)NC(=O)[C@H](CS)NC1=O [S4, His-Leu-Met-S5-Cys-Phe-Thr-S5-Ala-Lys-Lys-Leu-Lys-Lys-Arg] (H-HLM[S5]CFT[S5]AKKLKKR-OH; staple 4-8; N-terminus and C-terminus assumed) | interacted with the TRB3 protein | 33.6 | 2.833 | significantly higher than that of polypeptide MR2 |  |
| CSCC[C@H](NC(=O)[C@H](CC(C)C)NC(=O)[C@@H](N)Cc1c[nH]cn1)C(=O)N[C@@H](C)C(=O)N[C@@]1(C)CCCC=CCCC[C@@](C)(C(=O)N[C@@H](CCCCN)C(=O)N[C@@H](CCCCN)C(=O)N[C@@H](CC(C)C)C(=O)N[C@@H](CCCCN)C(=O)N[C@@H](CCCCN)C(=O)N[C@@H](CCCNC(=N)N)C(=O)O)NC(=O)[C@H](CS)NC(=O)[C@H]([C@@H](C)O)NC(=O)[C@H](Cc2ccccc2)NC1=O [S5, His-Leu-Met-Ala-S5-Phe-Thr-Cys-S5-Lys-Lys-Leu-Lys-Lys-Arg] (H-HLMA[S5]FTC[S5]KKLKKR-OH; staple 5-9; N-terminus and C-terminus assumed) | interacted with the TRB3 protein | 69.1 | 2.333 | significantly higher than that of polypeptide MR2 |  |
| CSCC[C@H](NC(=O)[C@H](CC(C)C)NC(=O)[C@@H](N)Cc1c[nH]cn1)C(=O)N[C@@H](C)C(=O)N[C@@H](CS)C(=O)N[C@@]1(C)CCCC=CCCC[C@@](C)(C(=O)N[C@@H](CCCCN)C(=O)N[C@@H](CC(C)C)C(=O)N[C@@H](CCCCN)C(=O)N[C@@H](CCCCN)C(=O)N[C@@H](CCCNC(=N)N)C(=O)O)NC(=O)[C@H](C)NC(=O)[C@H](CS)NC(=O)[C@H]([C@@H](C)O)NC1=O [S6, His-Leu-Met-Ala-Cys-S5-Thr-Cys-Ala-S5-Lys-Leu-Lys-Lys-Arg] (H-HLMAC[S5]TCA[S5]KLKKR-OH; staple 6-10; N-terminus and C-terminus assumed) | interacted with the TRB3 protein | 36.4 | 3 | significantly higher than that of polypeptide MR2 |  |
| S19: chimeric polypeptide Pep2-MR2, amino acid sequence SEQ ID NO: 19 (HLYVSPWGGHLMACFTCAKKLKKR; chimeric polypeptide Pep2-MR2 S19) |  |  |  |  | 1.833 |
| S20: chimeric polypeptide TAT-MR2, amino acid sequence SEQ ID NO: 20 (YGRKKRRQRRRGGHLMACFTCAKKLKKR; chimeric polypeptide TAT-MR2 S20) |  |  |  |  | 2.333 |
| S21: chimeric polypeptide Antp-MR2, amino acid sequence SEQ ID NO: 21 (RQIKIWFQNRRMKWKKGGHLMACFTCAKKLKKR; chimeric polypeptide Antp-MR2 S21) |  |  |  |  | 2.667 |
